ChEMBL document CHEMBL4229379, “Synthesis and structure-activity relationship of novel bisindole amidines active against MDR Gram-positive and Gram-negative bacteria” (Eur J Med Chem, 2018)
≈ marks a conversion by molar mass, not a printed value.

Key:
[1] = system: Staphylococcus epidermidis; experiment: Antibacterial activity against methicillin-sensitive Staphylococcus epidermidis ATCC 12228 after 18 hrs by CLSI broth microdilution method; type: functional; conditions: ATCC 12228, 18 h
[2] = system: Staphylococcus epidermidis; experiment: Antibacterial activity against methicillin-resistant Staphylococcus epidermidis 12-8 after 18 hrs by CLSI broth microdilution method; type: functional; conditions: 12-8, 18 h
Staphylococcus aureus [3] = experiment: Antibacterial activity against methicillin-sensitive Staphylococcus aureus ATCC 29213 after 18 hrs by CLSI broth microdilution method; type: functional; conditions: ATCC 29213, 18 h
Staphylococcus aureus [4] = experiment: Antibacterial activity against methicillin-resistant Staphylococcus aureus 12-33 after 18 hrs by CLSI broth microdilution method; type: functional; conditions: 12-33, 18 h
Enterococcus faecalis [5] = experiment: Antibacterial activity against vancomycin-sensitive Enterococcus faecalis ATCC 29212 after 18 hrs by CLSI broth microdilution method; type: functional; conditions: ATCC 29212, 18 h
Enterococcus faecalis [6] = experiment: Antibacterial activity against vancomycin-resistant Enterococcus faecalis 09-9 after 18 hrs by CLSI broth microdilution method; type: functional; conditions: 09-9, 18 h
Enterococcus faecium [7] = experiment: Antibacterial activity against vancomycin-resistant Enterococcus faecium ATCC 700221 after 18 hrs by CLSI broth microdilution method; type: functional; conditions: ATCC 700221, 18 h
Enterococcus faecium [8] = experiment: Antibacterial activity against vancomycin-sensitive Enterococcus faecium 12-3 after 18 hrs by CLSI broth microdilution method; type: functional; conditions: 12-3, 18 h
Escherichia coli [9] = experiment: Antibacterial activity against extended-spectrum beta-lactamase deficient Escherichia coli ATCC 25922 after 18 hrs by CLSI broth microdilution method; type: functional; conditions: ATCC 25922, 18 h
Escherichia coli [10] = experiment: Antibacterial activity against extended-spectrum beta-lactamase harboring Escherichia coli 12-15 after 18 hrs by CLSI broth microdilution method; type: functional; conditions: 12-15, 18 h
Klebsiella pneumoniae [11] = experiment: Antibacterial activity against extended-spectrum beta-lactamase harboring Klebsiella pneumoniae ATCC 700603 after 18 hrs by CLSI broth microdilution method; type: functional; conditions: Klebsiella pneumoniae, 700603, 18 h
Klebsiella pneumoniae [12] = experiment: Antibacterial activity against new delhi metallo-beta-lactamase-1 harboring Klebsiella pneumoniae ATCC BAA-2146 after 18 hrs by CLSI broth microdilution method; type: functional; conditions: ATCC BAA-2146, 18 h
Klebsiella pneumoniae [13] = experiment: Antibacterial activity against extended-spectrum beta-lactamase harboring Klebsiella pneumoniae 12-8 after 18 hrs by CLSI broth microdilution method; type: functional; conditions: 12-8, 18 h
Pseudomonas aeruginosa [14] = experiment: Antibacterial activity against Pseudomonas aeruginosa ATCC 27853 after 18 hrs by CLSI broth microdilution method; type: functional; conditions: ATCC 27853, 18 h
[15] = system: Acinetobacter calcoaceticus; experiment: Antibacterial activity against Acinetobacter calcoaceticus ATCC 19606 after 18 hrs by CLSI broth microdilution method; type: functional; conditions: ATCC 19606, 18 h
Enterobacter cloacae = experiment: Antibacterial activity against Enterobacter cloacae ATCC 43560 after 18 hrs by CLSI broth microdilution method; type: functional; conditions: ATCC 43560, 18 h
Proteus mirabilis = experiment: Antibacterial activity against Proteus mirabilis 12-6 after 18 hrs by CLSI broth microdilution method; type: functional; conditions: 12-6, 18 h
[16] = Cytotoxicity against HEK293T cells assessed as reduction in cell viability after 48 hrs by MTS assay; type: cell-based, HEK-293T; conditions: human
[17] = system: Staphylococcus epidermidis; experiment: Antibacterial activity against methicillin-sensitive Staphylococcus epidermidis 12-6 after 18 hrs by CLSI broth microdilution method; type: functional; conditions: 12-6, 18 h
Staphylococcus aureus [18] = experiment: Antibacterial activity against methicillin-resistant Staphylococcus aureus ATCC 33591 after 18 hrs by CLSI broth microdilution method; type: functional; conditions: ATCC 33591, 18 h
Staphylococcus aureus [19] = experiment: Antibacterial activity against methicillin-sensitive Staphylococcus aureus 15 after 18 hrs by CLSI broth microdilution method; type: functional; conditions: Staphylococcus aureus, 15, 18 h
Staphylococcus aureus [20] = experiment: Antibacterial activity against methicillin-sensitive Staphylococcus aureus 12-28 after 18 hrs by CLSI broth microdilution method; type: functional; conditions: 12-28, 18 h
Enterococcus faecalis [21] = experiment: Antibacterial activity against vancomycin-resistant Enterococcus faecalis ATCC 51299 after 18 hrs by CLSI broth microdilution method; type: functional; conditions: ATCC 51299, 18 h
Enterococcus faecalis [22] = experiment: Antibacterial activity against vancomycin-sensitive Enterococcus faecalis 12-5 after 18 hrs by CLSI broth microdilution method; type: functional; conditions: 12-5, 18 h
Enterococcus faecium [23] = experiment: Antibacterial activity against vancomycin-resistant Enterococcus faecium 12-1 after 18 hrs by CLSI broth microdilution method; type: functional; conditions: 12-1, 18 h
Escherichia coli [24] = experiment: Antibacterial activity against extended-spectrum beta-lactamase deficient Escherichia coli 1515 after 18 hrs by CLSI broth microdilution method; type: functional; conditions: Escherichia coli, 1515, 18 h
Escherichia coli [25] = experiment: Antibacterial activity against extended-spectrum beta-lactamase deficient Escherichia coli 12-14 after 18 hrs by CLSI broth microdilution method; type: functional; conditions: 12-14, 18 h
Klebsiella pneumoniae [26] = experiment: Antibacterial activity against extended-spectrum beta-lactamase deficient Klebsiella pneumoniae 7 after 18 hrs by CLSI broth microdilution method; type: functional; conditions: Klebsiella pneumoniae, 7, 18 h
Klebsiella pneumoniae [27] = experiment: Antibacterial activity against extended-spectrum beta-lactamase deficient Klebsiella pneumoniae 12-4 after 18 hrs by CLSI broth microdilution method; type: functional; conditions: 12-4, 18 h
Pseudomonas aeruginosa [28] = experiment: Antibacterial activity against Pseudomonas aeruginosa PAO1 after 18 hrs by CLSI broth microdilution method; type: functional; conditions: PAO1, 18 h
Pseudomonas aeruginosa [29] = experiment: Antibacterial activity against Pseudomonas aeruginosa 12-16 after 18 hrs by CLSI broth microdilution method; type: functional; conditions: 12-16, 18 h
Klebsiella aerogenes = experiment: Antibacterial activity against Enterobacter aerogenes ATCC 13048 after 18 hrs by CLSI broth microdilution method; type: functional; conditions: ATCC 13048, 18 h
Serratia marcescens = experiment: Antibacterial activity against Serratia marcescens ATCC 21074 after 18 hrs by CLSI broth microdilution method; type: functional; conditions: ATCC 21074, 18 h
Providencia rettgeri = experiment: Antibacterial activity against Providencia rettgeri ATCC 31052 after 18 hrs by CLSI broth microdilution method; type: functional; conditions: ATCC 31052, 18 h
Proteus vulgaris = experiment: Antibacterial activity against Proteus vulgaris ATCC 29905 after 18 hrs by CLSI broth microdilution method; type: functional; conditions: ATCC 29905, 18 h
[30] = system: Stenotrophomonas maltophilia; experiment: Antibacterial activity against Stenotrophomonas maltophilia ATCC 13636 after 18 hrs by CLSI broth microdilution method; type: functional; conditions: ATCC 13636, 18 h
Citrobacter freundii = experiment: Antibacterial activity against Citrobacter freundii ATCC 43864 after 18 hrs by CLSI broth microdilution method; type: functional; conditions: ATCC 43864, 18 h

Compound | MIC [1] [µg/mL] | MIC [2] [µg/mL] | MIC (Staphylococcus aureus [3]) [µg/mL] | MIC (Staphylococcus aureus [4]) [µg/mL] | MIC (Enterococcus faecalis [5]) [µg/mL] | MIC (Enterococcus faecalis [6]) [µg/mL] | MIC (Enterococcus faecium [7]) [µg/mL] | MIC (Enterococcus faecium [8]) [µg/mL] | MIC (Escherichia coli [9]) [µg/mL] | MIC (Escherichia coli [10]) [µg/mL] | MIC (Klebsiella pneumoniae [11]) [µg/mL] | MIC (Klebsiella pneumoniae [12]) [µg/mL] | MIC (Klebsiella pneumoniae [13]) [µg/mL] | MIC (Pseudomonas aeruginosa [14]) [µg/mL] | MIC [15] [µg/mL] | MIC (Enterobacter cloacae) [µg/mL] | MIC (Proteus mirabilis) [µg/mL] | CC50 at 48 h [16] [µg/mL] | MIC [17] [µg/mL] | MIC (Staphylococcus aureus [18]) [µg/mL] | further results
CN(C)CCNC(=N)c1ccc2cc(-c3ccc(-c4cc5ccc(C(=N)NCCN(C)C)cc5[nH]4)cc3)[nH]c2c1 | 0.5 (≈ 0.935 µM) | 1 (≈ 1.87 µM) | 2 (≈ 3.74 µM) | 2 (≈ 3.74 µM) | 4 (≈ 7.48 µM) | 4 (≈ 7.48 µM) | 4 (≈ 7.48 µM) | 8 (≈ 15 µM) | 8 (≈ 15 µM) | 16 (≈ 29.9 µM) | 16 (≈ 29.9 µM) | 8 (≈ 15 µM) | 8 (≈ 15 µM) | 16 (≈ 29.9 µM) | > 128 | 8 (≈ 15 µM) | 128 (≈ 239 µM) | 31.2 (≈ 58.4 µM) | 0.5 (≈ 0.935 µM) | 2 (≈ 3.74 µM) | MIC (Staphylococcus aureus [19]): 2 µg/mL (≈ 3.74 µM); MIC (Staphylococcus aureus [20]): 2 µg/mL (≈ 3.74 µM); MIC (Enterococcus faecalis [21]): 4 µg/mL (≈ 7.48 µM); MIC (Enterococcus faecalis [22]): 4 µg/mL (≈ 7.48 µM); MIC (Enterococcus faecium [23]): 4 µg/mL (≈ 7.48 µM); MIC (Escherichia coli [24]): 8 µg/mL (≈ 15 µM); MIC (Escherichia coli [25]): 8 µg/mL (≈ 15 µM); MIC (Klebsiella pneumoniae [26]): 8 µg/mL (≈ 15 µM); MIC (Klebsiella pneumoniae [27]): 8 µg/mL (≈ 15 µM); MIC (Pseudomonas aeruginosa [28]): 64 µg/mL (≈ 120 µM); MIC (Pseudomonas aeruginosa [29]): 64 µg/mL (≈ 120 µM); MIC (Klebsiella aerogenes): 8 µg/mL (≈ 15 µM); MIC (Serratia marcescens): 16 µg/mL (≈ 29.9 µM); MIC (Providencia rettgeri): 16 µg/mL (≈ 29.9 µM); MIC (Proteus vulgaris): 16 µg/mL (≈ 29.9 µM); MIC [30]: 16 µg/mL (≈ 29.9 µM); MIC (Citrobacter freundii): 8 µg/mL (≈ 15 µM)
CN(C)CCCNC(=N)c1ccc2cc(-c3ccc(-c4cc5ccc(C(=N)NCCCN(C)C)cc5[nH]4)cc3)[nH]c2c1 | 2 (≈ 3.55 µM) | 2 (≈ 3.55 µM) | 4 (≈ 7.11 µM) | 4 (≈ 7.11 µM) | 4 (≈ 7.11 µM) | 4 (≈ 7.11 µM) | 4 (≈ 7.11 µM) | 8 (≈ 14.2 µM) | 4 (≈ 7.11 µM) | 8 (≈ 14.2 µM) | 8 (≈ 14.2 µM) | 8 (≈ 14.2 µM) | 8 (≈ 14.2 µM) | 8 (≈ 14.2 µM) | 128 (≈ 227 µM) | 8 (≈ 14.2 µM) | 128 (≈ 227 µM) | 27.7 (≈ 49.2 µM) | 4 (≈ 7.11 µM) | 4 (≈ 7.11 µM) | MIC (Staphylococcus aureus [19]): 4 µg/mL (≈ 7.11 µM); MIC (Staphylococcus aureus [20]): 4 µg/mL (≈ 7.11 µM); MIC (Enterococcus faecalis [21]): 4 µg/mL (≈ 7.11 µM); MIC (Enterococcus faecalis [22]): 8 µg/mL (≈ 14.2 µM); MIC (Enterococcus faecium [23]): 4 µg/mL (≈ 7.11 µM); MIC (Escherichia coli [24]): 8 µg/mL (≈ 14.2 µM); MIC (Escherichia coli [25]): 8 µg/mL (≈ 14.2 µM); MIC (Klebsiella pneumoniae [26]): 8 µg/mL (≈ 14.2 µM); MIC (Klebsiella pneumoniae [27]): 8 µg/mL (≈ 14.2 µM); MIC (Pseudomonas aeruginosa [28]): 8 µg/mL (≈ 14.2 µM); MIC (Pseudomonas aeruginosa [29]): 32 µg/mL (≈ 56.9 µM); MIC (Klebsiella aerogenes): 8 µg/mL (≈ 14.2 µM); MIC (Serratia marcescens): 8 µg/mL (≈ 14.2 µM); MIC (Providencia rettgeri): 8 µg/mL (≈ 14.2 µM); MIC (Proteus vulgaris): 16 µg/mL (≈ 28.4 µM); MIC [30]: 8 µg/mL (≈ 14.2 µM); MIC (Citrobacter freundii): 8 µg/mL (≈ 14.2 µM)
CCNC(=N)c1ccc2cc(-c3ccc(-c4cc5ccc(C(=N)NCC)cc5[nH]4)cc3)[nH]c2c1 | 0.5 (≈ 1.11 µM) | 1 (≈ 2.23 µM) | 1 (≈ 2.23 µM) | 1 (≈ 2.23 µM) | 1 (≈ 2.23 µM) | 2 (≈ 4.46 µM) | 1 (≈ 2.23 µM) | 2 (≈ 4.46 µM) | 8 (≈ 17.8 µM) | 16 (≈ 35.7 µM) | 32 (≈ 71.3 µM) | 32 (≈ 71.3 µM) | 32 (≈ 71.3 µM) | 8 (≈ 17.8 µM) | 64 (≈ 143 µM) | 16 (≈ 35.7 µM) | > 64 | 4.1 (≈ 9.14 µM) | 1 (≈ 2.23 µM) | 1 (≈ 2.23 µM) | MIC (Staphylococcus aureus [19]): 1 µg/mL (≈ 2.23 µM); MIC (Staphylococcus aureus [20]): 1 µg/mL (≈ 2.23 µM); MIC (Enterococcus faecalis [21]): 2 µg/mL (≈ 4.46 µM); MIC (Enterococcus faecalis [22]): 2 µg/mL (≈ 4.46 µM); MIC (Enterococcus faecium [23]): 1 µg/mL (≈ 2.23 µM); MIC (Escherichia coli [24]): 32 µg/mL (≈ 71.3 µM); MIC (Escherichia coli [25]): 16 µg/mL (≈ 35.7 µM); MIC (Klebsiella pneumoniae [26]): 16 µg/mL (≈ 35.7 µM); MIC (Klebsiella pneumoniae [27]): 16 µg/mL (≈ 35.7 µM); MIC (Pseudomonas aeruginosa [28]): 32 µg/mL (≈ 71.3 µM); MIC (Pseudomonas aeruginosa [29]): 32 µg/mL (≈ 71.3 µM); MIC (Klebsiella aerogenes): 16 µg/mL (≈ 35.7 µM); MIC (Serratia marcescens): 32 µg/mL (≈ 71.3 µM); MIC (Providencia rettgeri): 32 µg/mL (≈ 71.3 µM); MIC (Proteus vulgaris): 64 µg/mL (≈ 143 µM); MIC [30]: 8 µg/mL (≈ 17.8 µM); MIC (Citrobacter freundii): 16 µg/mL (≈ 35.7 µM)
